Results published in patent US10323063B2, “Advanced macromolecule transduction domain (aMTD) sequences for improvement of cell-permeability, polynucleotides encoding the same, method to identify the unique features of aMTDs comprising the same, method to develop the aMTD sequences comprising the same” (CELLIVERY THERAPEUTICS, INC., priority 2014, dated 2019).

Tested on: RAW 264.7 cells
Assay: Quantitative cell-permeability of FITC-labeled aMTD- or rPeptide-fused CRA recombinant proteins by flow cytometry
Format: cell-based
From the text: The aMTDs and rPeptides were fluorescently labeled and compared based on the critical factors for cell-permeability by using flow cytometry and confocal laser scanning microscopy (FIG. 5 to 8). The cellular uptake of the peptide-fused non-functional cargo recombinant proteins could quantitatively be evaluated in flow cytometry, while confocal laser scanning microscopy allows intracellular uptake to be assessed visually. The analysis included recombinant proteins fused to a negative control [rP38] that has opposite characteristics (hydrophilic and aromatic sequence: YYNQSTCGGQCY) to the aMTDs (hydrophobic and aliphatic sequences). Relative cell-permeability (relative fold) of aMTDs to the negative control was also analyzed (TABLE 39 and FIG. 9).
Geometric means of negative control (histidine-tagged rP38-fused CRA recombinant protein) subtracted by that of naked protein (histidine-tagged CRA protein) lacking any peptide (rP38 or aMTD) was standardized as relative fold of 1.
For quantitative cell-permeability, the aMTD- or rPeptide-fused recombinant proteins were conjugated to fluorescein isothiocyanate (FITC) according to the manufacturer's instructions (Sigma-Aldrich, St. Louis, Mo.). RAW 264.7 cells were treated with 10 μM FITC-labeled recombinant proteins for 1 hour at 37° C., washed three times with cold PBS, treated with 0.25% tripsin/EDTA (Sigma-Aldrich, St. Louis, Mo.) for 20 minutes at 37° C. to remove cell-surface bound proteins. Cell-permeability of these recombinant proteins were analyzed by flow cytometry (Guava, Millipore, Darmstadt, Germany) using the FlowJo cytometric analysis software (FIG. 5 to 6). The relative cell-permeability of aMTDs were measured and compared with the negative control (rP38) and reference hydrophobic CPPs (MTM12 and MTD85) (TABLE 47).

[1] = cell-permeability of aMTD-fused CRA recombinant protein relative to reference CPP (C: MTD85)
[2] = cell-permeability of aMTD-fused CRA recombinant protein relative to negative control (A: rP38)
[3] = cell-permeability of aMTD-fused CRA recombinant protein relative to reference CPP (B: MTM12)
[4] = cell-permeability of aMTD-fused CRA recombinant protein relative to negative control rP38 (A type)
[5] = cell-permeability relative to reference CPP MTD85 (C type)
[6] = cell-permeability relative to reference CPP MTM12 (B type)

Substance | Relative Ratio (Fold) C [1] | Relative Ratio (Fold) A [2] | Relative Ratio (Fold) A [4] | Relative Ratio (Fold) C [5] | Relative Ratio (Fold) B [6] | other results
825 (IVAVIVAPAVAP; Advanced Macromolecule Transduction Domain (aMTD) Sequences for Improvement of Cell-Permeability) [compound 825] | 23.6 Fold |  |  |  |  | 
908 (VALALAPVVVAP; Advanced Macromolecule Transduction Domain (aMTD) Sequences for Improvement of Cell-Permeability) [compound 908] | 50.9 Fold | 150.6 Fold |  |  |  | Relative Ratio (Fold) B [3]: 100.8 Fold
501 (VIVALAVPALAP; Advanced Macromolecule Transduction Domain (aMTD) Sequences for Improvement of Cell-Permeability) [compound 501] | 7.3 Fold |  |  |  |  | 
204 (LIAALPAVAALP; Advanced Macromolecule Transduction Domain (aMTD) Sequences for Improvement of Cell-Permeability) [compound 204] |  |  | 2.2 Fold | 0.8 Fold | 1.5 Fold | 
224 (ILAAVPIALAAP; Advanced Macromolecule Transduction Domain (aMTD) Sequences for Improvement of Cell-Permeability) [compound 224] | 5.3 Fold | 15.8 Fold |  |  |  | Relative Ratio (Fold) B [3]: 10.6 Fold
285 (AIVLLPAAVVAP; Advanced Macromolecule Transduction Domain (aMTD) Sequences for Improvement of Cell-Permeability) [compound 285] |  |  |  |  |  | Relative Ratio (Fold) B [3]: 8.9 Fold
705 (IVAVALLPALAP; Advanced Macromolecule Transduction Domain (aMTD) Sequences for Improvement of Cell-Permeability) [compound 705] |  | 28.6 Fold |  |  |  | 
879 (AAIVLLPAVVVP; Advanced Macromolecule Transduction Domain (aMTD) Sequences for Improvement of Cell-Permeability) [compound 879] |  |  | 7.2 Fold | 2.4 Fold | 4.8 Fold | 
144 (VLAIVPAVALAP; Advanced Macromolecule Transduction Domain (aMTD) Sequences for Improvement of Cell-Permeability) [compound 144] |  |  | 8.8 Fold | 3.0 Fold | 5.9 Fold | 
44 (ALAVPVALLVAP; Advanced Macromolecule Transduction Domain (aMTD) Sequences for Improvement of Cell-Permeability) [compound 44] |  |  | 1.6 Fold | 0.5 Fold | 1.1 Fold | 
910 (VAALLPAVVVAP; Advanced Macromolecule Transduction Domain (aMTD) Sequences for Improvement of Cell-Permeability) [compound 910] |  | 148.5 Fold |  |  |  | 
543 (LLAALIAPAALP; Advanced Macromolecule Transduction Domain (aMTD) Sequences for Improvement of Cell-Permeability) [compound 543] |  |  |  |  | 7.8 Fold | 
